Measured values published in paper PMC12748989 (Nature Communications, 2025).

Columns and labels:
PBMC = conditions: 12.5 µM

## CC[C@H](C)[C@H](N)C(=O)N[C@@H](CC(N)=O)C(=O)N[C@@H](CC(C)C)C(=O)N[C@@H](CCCCN)C(=O)N[C@@H](C)C(=O)N[C@@H](CC(C)C)C(=O)N[C@@H](C)C(=O)N[C@H](C(=O)N[C@@H](CC(C)C)C(=O)N[C@@H](C)C(=O)N[C@@H](CCCCN)C(=O)N[C@@H](CCCCN)C(=O)N[C@H](C(=O)N[C@@H](CC(C)C)C(N)=O)[C@@H](C)CC)[C@@H](C)O [T8]
PBMC
  Average (percentage cell inhibition), Mastoparan PBMC: 11.6569%
MDA-MB-231 cells
  Average (percentage cell inhibition), Dmastoparan MDA-MB231 12.5uM: 35.9719%

## CC[C@H](C)[C@H](N)C(=O)N[C@@H](CC(N)=O)C(=O)N[C@@H](CC(C)C)C(=O)N[C@@H](CCCCN)C(=O)N[C@@H](C)C(=O)N[C@@H](CC(C)C)C(=O)N[C@@H](C)C(=O)N[C@@H](C)C(=O)N[C@@H](CC(C)C)C(=O)N[C@@H](C)C(=O)N[C@@H](CCCCN)C(=O)N[C@H](C(=O)N[C@H](C(=O)N[C@@H](CC(C)C)C(N)=O)[C@@H](C)CC)[C@@H](C)O [T12]
PBMC
  Average (percentage cell inhibition), Mastoparan PBMC: 10.5164%
MDA-MB-231 cells
  Average (percentage cell inhibition), Dmastoparan MDA-MB231 12.5uM: 27.1643%

## CC[C@H](C)[C@H](N)C(=O)N[C@@H](CC(N)=O)C(=O)N[C@@H](CC(C)C)C(=O)N[C@@H](CCCCN)C(=O)N[C@@H](C)C(=O)N[C@@H](CC(C)C)C(=O)N[C@@H](Cc1c[nH]c2ccccc12)C(=O)N[C@@H](C)C(=O)N[C@@H](CC(C)C)C(=O)N[C@@H](C)C(=O)N[C@@H](CCCCN)C(=O)N[C@@H](CCCCN)C(=O)N[C@H](C(=O)N[C@@H](CC(C)C)C(N)=O)[C@@H](C)CC [W7]
PBMC
  Average (percentage cell inhibition), Mastoparan PBMC: 70.534%
MDA-MB-231 cells
  Average (percentage cell inhibition), Dmastoparan MDA-MB231 12.5uM: 92.6725%

## CC[C@H](C)[C@H](N)C(=O)N[C@@H](CC(N)=O)C(=O)N[C@@H](CC(C)C)C(=O)N[C@@H](CCCCN)C(=O)N[C@@H](C)C(=O)N[C@@H](CC(C)C)C(=O)N[C@@H](C)C(=O)N[C@@H](C)C(=O)N[C@@H](Cc1ccc(O)cc1)C(=O)N[C@@H](C)C(=O)N[C@@H](CCCCN)C(=O)N[C@@H](CCCCN)C(=O)N[C@H](C(=O)N[C@@H](CC(C)C)C(N)=O)[C@@H](C)CC [Y9]
PBMC
  Average (percentage cell inhibition), Mastoparan PBMC: 11.8226%
MDA-MB-231 cells
  Average (percentage cell inhibition), Dmastoparan MDA-MB231 12.5uM: 27.288%

## CC[C@H](C)[C@H](N)C(=O)N[C@@H](CC(N)=O)C(=O)N[C@@H](CC(C)C)C(=O)N[C@@H](CCCCN)C(=O)N[C@@H](C)C(=O)N[C@@H](CC(C)C)C(=O)N[C@@H](C)C(=O)N[C@@H](C)C(=O)N[C@@H](CC(C)C)C(=O)N[C@@H](C)C(=O)N[C@@H](CCCCN)C(=O)N[C@H](C(=O)N[C@H](C(=O)N[C@@H](CC(C)C)C(N)=O)[C@@H](C)CC)[C@@H](C)CC [I12]
PBMC
  Average (percentage cell inhibition), Mastoparan PBMC: 20.8332%
MDA-MB-231 cells
  Average (percentage cell inhibition), Dmastoparan MDA-MB231 12.5uM: 44.3343%

## CC[C@H](C)[C@H](N)C(=O)N[C@@H](CC(N)=O)C(=O)N[C@@H](CC(C)C)C(=O)N[C@@H](CCCCN)C(=O)N[C@@H](C)C(=O)N[C@@H](CC(C)C)C(=O)N[C@@H](C)C(=O)N[C@@H](C)C(=O)N[C@@H](CC(C)C)C(=O)N[C@@H](C)C(=O)N[C@@H](CC(C)C)C(=O)N[C@@H](CCCCN)C(=O)N[C@H](C(=O)N[C@@H](CC(C)C)C(N)=O)[C@@H](C)CC [L11]
PBMC
  Average (percentage cell inhibition), Mastoparan PBMC: 23.4198%
MDA-MB-231 cells
  Average (percentage cell inhibition), Dmastoparan MDA-MB231 12.5uM: 59.9826%

## CC[C@H](C)[C@H](N)C(=O)N[C@@H](Cc1c[nH]c2ccccc12)C(=O)N[C@@H](CC(C)C)C(=O)N[C@@H](CCCCN)C(=O)N[C@@H](C)C(=O)N[C@@H](CC(C)C)C(=O)N[C@@H](C)C(=O)N[C@@H](C)C(=O)N[C@@H](CC(C)C)C(=O)N[C@@H](C)C(=O)N[C@@H](CCCCN)C(=O)N[C@@H](CCCCN)C(=O)N[C@H](C(=O)N[C@@H](CC(C)C)C(N)=O)[C@@H](C)CC [W2]
PBMC
  Average (percentage cell inhibition), Mastoparan PBMC: 92.9669%
MDA-MB-231 cells
  Average (percentage cell inhibition), Dmastoparan MDA-MB231 12.5uM: 98.3458%

## CC[C@H](C)[C@H](N)C(=O)N[C@@H](CC(N)=O)C(=O)N1CCC[C@H]1C(=O)N[C@@H](CCCCN)C(=O)N[C@@H](C)C(=O)N[C@@H](CC(C)C)C(=O)N[C@@H](C)C(=O)N[C@@H](C)C(=O)N[C@@H](CC(C)C)C(=O)N[C@@H](C)C(=O)N[C@@H](CCCCN)C(=O)N[C@@H](CCCCN)C(=O)N[C@H](C(=O)N[C@@H](CC(C)C)C(N)=O)[C@@H](C)CC [P3]
PBMC
  Average (percentage cell inhibition), Mastoparan PBMC: -5.207%
MDA-MB-231 cells
  Average (percentage cell inhibition), Dmastoparan MDA-MB231 12.5uM: 17.7289%

## CC[C@H](C)[C@H](N)C(=O)N[C@@H](CC(N)=O)C(=O)N[C@@H](CC(C)C)C(=O)N[C@@H](CCCCN)C(=O)N[C@@H](C)C(=O)N[C@@H](CC(C)C)C(=O)NCC(=O)N[C@@H](C)C(=O)N[C@@H](CC(C)C)C(=O)N[C@@H](C)C(=O)N[C@@H](CCCCN)C(=O)N[C@@H](CCCCN)C(=O)N[C@H](C(=O)N[C@@H](CC(C)C)C(N)=O)[C@@H](C)CC [G7]
PBMC
  Average (percentage cell inhibition), Mastoparan PBMC: 11.7718%
MDA-MB-231 cells
  Average (percentage cell inhibition), Dmastoparan MDA-MB231 12.5uM: 49.0864%

## CC[C@H](C)[C@H](N)C(=O)N[C@@H](CC(N)=O)C(=O)N[C@H](C(=O)N[C@@H](CCCCN)C(=O)N[C@@H](C)C(=O)N[C@@H](CC(C)C)C(=O)N[C@@H](C)C(=O)N[C@@H](C)C(=O)N[C@@H](CC(C)C)C(=O)N[C@@H](C)C(=O)N[C@@H](CCCCN)C(=O)N[C@@H](CCCCN)C(=O)N[C@H](C(=O)N[C@@H](CC(C)C)C(N)=O)[C@@H](C)CC)C(C)C [V3]
PBMC
  Average (percentage cell inhibition), Mastoparan PBMC: -4.825%
MDA-MB-231 cells
  Average (percentage cell inhibition), Dmastoparan MDA-MB231 12.5uM: 35.8976%

## CC[C@H](C)[C@H](N)C(=O)N[C@@H](CC(N)=O)C(=O)N[C@@H](CC(C)C)C(=O)N[C@@H](CCCNC(=N)N)C(=O)N[C@@H](C)C(=O)N[C@@H](CC(C)C)C(=O)N[C@@H](C)C(=O)N[C@@H](C)C(=O)N[C@@H](CC(C)C)C(=O)N[C@@H](C)C(=O)N[C@@H](CCCCN)C(=O)N[C@@H](CCCCN)C(=O)N[C@H](C(=O)N[C@@H](CC(C)C)C(N)=O)[C@@H](C)CC [R4]
PBMC
  Average (percentage cell inhibition), Mastoparan PBMC: 0.667%
MDA-MB-231 cells
  Average (percentage cell inhibition), Dmastoparan MDA-MB231 12.5uM: 36.9563%

## CC[C@H](C)[C@H](N)C(=O)N[C@@H](CC(N)=O)C(=O)N[C@@H](CC(C)C)C(=O)N[C@@H](CCCCN)C(=O)N[C@@H](C)C(=O)N[C@@H](CC(C)C)C(=O)N[C@@H](C)C(=O)N[C@@H](C)C(=O)N[C@@H](CC(C)C)C(=O)N[C@@H](C)C(=O)N[C@@H](CCCCN)C(=O)N[C@@H](CCCCN)C(=O)N[C@H](C(=O)N[C@@H](CO)C(N)=O)[C@@H](C)CC [S14]
PBMC
  Average (percentage cell inhibition), Mastoparan PBMC: -3.76%
MDA-MB-231 cells
  Average (percentage cell inhibition), Dmastoparan MDA-MB231 12.5uM: 38.8299%

## CC[C@H](C)[C@H](N)C(=O)N[C@@H](CC(N)=O)C(=O)N[C@@H](CC(C)C)C(=O)N[C@@H](CCCCN)C(=O)N[C@@H](C)C(=O)N[C@@H](CC(C)C)C(=O)N[C@@H](CO)C(=O)N[C@@H](C)C(=O)N[C@@H](CC(C)C)C(=O)N[C@@H](C)C(=O)N[C@@H](CCCCN)C(=O)N[C@@H](CCCCN)C(=O)N[C@H](C(=O)N[C@@H](CC(C)C)C(N)=O)[C@@H](C)CC [S7]
PBMC
  Average (percentage cell inhibition), Mastoparan PBMC: -4.112%
MDA-MB-231 cells
  Average (percentage cell inhibition), Dmastoparan MDA-MB231 12.5uM: 34.1343%

## CC[C@H](C)[C@H](N)C(=O)N[C@@H](CC(N)=O)C(=O)N[C@@H](CC(C)C)C(=O)N[C@@H](CCCCN)C(=O)N[C@@H](C)C(=O)N[C@@H](CC(C)C)C(=O)N[C@@H](C)C(=O)N[C@@H](C)C(=O)N[C@@H](CC(C)C)C(=O)N[C@@H](C)C(=O)N[C@@H](CCCCN)C(=O)N[C@@H](Cc1c[nH]c2ccccc12)C(=O)N[C@H](C(=O)N[C@@H](CC(C)C)C(N)=O)[C@@H](C)CC [W12]
PBMC
  Average (percentage cell inhibition), Mastoparan PBMC: 73.0011%
MDA-MB-231 cells
  Average (percentage cell inhibition), Dmastoparan MDA-MB231 12.5uM: 64.637%
